Measured values published in US20030177534A1, “Plant glutamine:fructose-6-phosphate amidotransferase nucleic acids” (Pioneer Hi-Bred International, Inc., priority 1998, published 2003).

Assays:
[1] = tested on: yeast glycogen synthase (YGS); test: Activity assay of the yeast glycogen synthase (YGS) overexpressed in Pichia; format: biochemical; conditions: 6.7 mM UDP glucosamine, 1 mM maltoheptose, 30° C., 1 hour; preliminary results
Protocol: 6. Activity Assay of the Yeast Glycogen Synthase (YGS)
The last reaction: synthesis of cationic starch by the yeast glycogen synthase overexpressed in Pichia using UDPgluosamine and glucosyl oligosaccharide primers: […]
UDP glucosamine+starch→starch periodically interspersed with 2 amino anhydroglucose
The YGS produced from secreted expression in Pichia was isolated from the growth medium, desalted into a buffer containing 50 mM Tris-HCl and 5 mM EDTA, pH 7.8, and concentrated using Centricon-30 concentrator. The preparation was used for assaying the activity of YGS.
50 mM Tris-HCl and 5 mM EDTA, pH 7.8
6.7 mM UDP glucose or UDP glucosamine
6.7 mM glucose-6-phosphate
1 mM maltoheptose ([…], from Sigma)
Protein prep: 150 μg/300-μl reaction
Incubated at 30° C. for 1 hour.
Analyze by HPLC using Dionex's CarboPac-PA1 column with a pulsed amperometry detector (to detect the formation of elongated glusyl oligo primers);

Phosphoglucomutase (PGM) = test: Activity assay of phosphoglucomutase (PGM), maize endosperm protein extract; format: biochemical; conditions: extract from immature seeds, 20 days after pollination, HPLC
Protocol: (§1) 3. Activity Assay of Phosphoglucomutase (PGM)
(§2) glucosamine-6-phosphate→glucosamine-1-phosphate
(§3) 80 mM triethanolamine, pH 7.6
(§4) 20 μM glucosae-1,6-bisphosphate
(§5) 2 mM glucosamine-1-phosphate or glucosamine-6-phosphate
Maize endosperm protein extract (200-μg total protein per 1.0 ml reaction)
Ground kernels in ice-cold homogenization buffer (50 mM KH2PO4, pH 7.0; 5 mM EDTA; and 1 mM
DTT). Kernels were dissected from an ear (HN18) harvested 20 days after pollination.
Filtered the homogenate through 4-layer cheesecloth, and centrifuged at 25,000×g for 20 min at 4° C.
Desalted the supernatant into the homogenization buffer using a fast FPLC desalting column and collected the flow through.
Added PMSF and chymostatin to a final concentration of 1 mM and used the flow-through as crude PGM prep for the assay.
(§6) Incubated at 30° C. for 15 min.
(§7) * Transferred to a Centricon-30 concentrator and centrifuged at 1,400× for 20 min.
(§8) Removed 100 μl of the filtrate and added 400-μl water.
(§9) Injected 50 μl onto Dionex's CarboPac PA1 column and detected with a pulsed amperometry detector.
(§10) Eluted with 100 mM NaOH and 100 mM NaOH/1M sodium acetate (to detect formation of glucosamine-6-phosphate or glucosamine-1-phosphate): […]

Baker yeast UGPase = target: T1, Baker yeast UGPase (Saccharomyces cerevisiae, UniProt P32861); test: Activity assay of UDPglucose pyrophosphorylase (UGPase), Baker yeast enzyme; format: biochemical, Bakers yeast; conditions: 2 mM substrate, 1 mM UTP, 30° C., 30 minutes, HPLC
T1 construct: UDP-glucose pyrophorylases purified from Bakers yeast (U 8501); purchased Sigma U 8501; host or cells: Bakers yeast
T1 sequence (P32861 1-499): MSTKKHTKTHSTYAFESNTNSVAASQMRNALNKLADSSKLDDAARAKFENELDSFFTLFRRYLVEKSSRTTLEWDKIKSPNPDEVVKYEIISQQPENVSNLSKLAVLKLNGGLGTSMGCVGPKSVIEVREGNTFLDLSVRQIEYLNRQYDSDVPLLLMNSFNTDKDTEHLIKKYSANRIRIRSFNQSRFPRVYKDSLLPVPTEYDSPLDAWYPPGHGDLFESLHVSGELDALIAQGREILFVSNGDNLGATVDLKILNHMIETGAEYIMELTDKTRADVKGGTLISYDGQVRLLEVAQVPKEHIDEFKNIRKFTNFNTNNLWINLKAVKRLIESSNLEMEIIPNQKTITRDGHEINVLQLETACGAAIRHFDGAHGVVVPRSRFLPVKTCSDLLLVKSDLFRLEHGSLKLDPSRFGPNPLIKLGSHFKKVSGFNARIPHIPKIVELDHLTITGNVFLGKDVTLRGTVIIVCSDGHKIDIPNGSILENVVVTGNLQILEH
Protocol: (§11) 4. Activity Assay of UDPglucose Pyrophosporylase (UGPase) [drawing 1]
(§12) The above reaction is evaluated with an alternative substrate, glucosamine-1-phosphate.
(§13) Enzymes: UDP-glucose pyrophorylases purified from Bakers yeast (U 8501) & bovine liver (U 5877) by Sigma;
(§14) UGPase assay was conducted per protocals used by Sigma;
50 mM Tris-HCl, pH 7.6; 16 mM MgCl2; 10 mM L-cystein, 1 mM UTP; inorganic pyrophosphorylase; 2 mM glucose-1-P or glucosamine-1-P;
(§15) Carried out the reactions at 30° C. for 30 minutes;
(§16) Boiled for 5 min and passed through Centrion-10;

UGPase = UGPase activity in the maize endosperm protein extract; format: biochemical; conditions: extract from seeds harvested 20 days after pollination
Protocol: For UGPase Activity in the Maize Endosperm
Weighted 8-g GS3 kernels (20 days after pollination);
Added 0.5-ml Boehringer's protease inhibitor cocktail (one tablet dissolved in 1-ml water);
Blended for 10 sec, 3×at 4° C.;
Filtered through three layers of Cheesecloth at 4° C.;
Passed two 100-μl aliquots through a BioRad's BioSpin-30 column using a swing bucked rotor in Jouan at 2100 rpm, at RT, & repeated (i.e. two Bio-Spin-30 columns used for each of the 2, 100-μl aliquots);
(§17) 48 mM Tris-HCl, pH 8.5; 19 mM MgCl2; 2.3 mM β-mercaptoethanol; 1 mM UTP; inorganic pyrophosphorylase; 2 mM glucose-1-P or glucosamine-1-P;
as §15, §16

PGM from rabbit muscle = target: T2, PGM from rabbit muscle (Oryctolagus cuniculus, UniProt P00949); test: Activity assay of phosphoglucomutase (PGM), commercial rabbit muscle PGM; format: biochemical; conditions: HPLC; for conversion of substrate by rabbit muscle PGM (glucosamine-1-phosphate to glucosamine-6-phosphate or reverse): 2 mM substrate, 30° C., 15 min, at completion/end of reaction
T2 construct: Commercial PGM from rabbit muscle; purchased Boehringer Mannheim 108375; host or cells: rabbit muscle
T2 sequence (P00949 1-562): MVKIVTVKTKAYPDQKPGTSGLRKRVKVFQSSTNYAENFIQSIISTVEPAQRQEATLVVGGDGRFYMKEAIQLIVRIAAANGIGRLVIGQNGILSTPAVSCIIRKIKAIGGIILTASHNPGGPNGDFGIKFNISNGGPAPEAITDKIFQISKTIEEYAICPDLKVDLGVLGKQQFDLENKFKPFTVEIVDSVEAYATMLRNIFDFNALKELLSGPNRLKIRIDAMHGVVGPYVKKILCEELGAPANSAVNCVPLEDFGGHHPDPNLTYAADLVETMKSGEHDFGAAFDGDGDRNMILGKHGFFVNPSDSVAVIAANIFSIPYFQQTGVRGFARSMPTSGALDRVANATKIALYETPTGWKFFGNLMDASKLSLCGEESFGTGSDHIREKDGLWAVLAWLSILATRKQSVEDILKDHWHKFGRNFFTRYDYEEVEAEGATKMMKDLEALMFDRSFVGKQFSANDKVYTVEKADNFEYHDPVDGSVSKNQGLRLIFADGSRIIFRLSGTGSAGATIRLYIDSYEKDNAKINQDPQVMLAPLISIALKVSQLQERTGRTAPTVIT
Protocol: as §1, §2, §3, §4, §5
Commercial PGM from rabbit muscle (Boehringer Mannheim, Catalog No. 108375)
as §6, §7, §8, §9, §10

bovine liver UGPase = target: T3, bovine liver UGPase (Bos taurus, UniProt Q07130); test: Activity assay of UDPglucose pyrophosphorylase (UGPase), bovine liver enzyme; format: biochemical; conditions: 2 mM substrate, 1 mM UTP, 30° C., 30 minutes, HPLC
T3 construct: purchased Sigma U 5877; host or cells: bovine liver
T3 sequence (Q07130 1-508): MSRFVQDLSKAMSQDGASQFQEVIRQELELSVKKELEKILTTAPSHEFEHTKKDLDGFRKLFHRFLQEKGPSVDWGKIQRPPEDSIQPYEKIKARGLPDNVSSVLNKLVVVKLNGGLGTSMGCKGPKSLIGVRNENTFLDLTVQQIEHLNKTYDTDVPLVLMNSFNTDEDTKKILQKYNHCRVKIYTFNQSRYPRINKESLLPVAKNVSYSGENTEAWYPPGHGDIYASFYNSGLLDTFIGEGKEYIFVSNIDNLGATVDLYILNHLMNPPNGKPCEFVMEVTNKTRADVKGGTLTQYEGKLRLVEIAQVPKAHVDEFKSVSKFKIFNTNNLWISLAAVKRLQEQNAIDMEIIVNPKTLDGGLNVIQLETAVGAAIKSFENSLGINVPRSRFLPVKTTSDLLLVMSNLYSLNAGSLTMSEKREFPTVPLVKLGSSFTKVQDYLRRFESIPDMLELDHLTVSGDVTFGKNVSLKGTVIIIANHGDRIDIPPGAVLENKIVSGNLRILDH
Protocol: as §11, §12, §13, §14, §17, §15, §16

## N[C@H]1[C@@H](OP(=O)(O)OP(=O)(O)OC[C@H]2O[C@@H](n3ccc(=O)[nH]c3=O)[C@H](O)[C@@H]2O)O[C@H](CO)[C@@H](O)[C@@H]1O [UDP glucosamine]
[1]
  substrate recognition, transfer of glucosaminyl moiety to glucosyl oligo primers: recognize UDP glucosamine as a substrate

## N[C@H]1C(OP(=O)(O)O)O[C@H](CO)[C@@H](O)[C@@H]1O (stereo partly drawn) [glucosamine-1-phosphate]
Phosphoglucomutase (PGM)
  use of substrate by PGM in maize endosperm extract (result in words): Glucosamine-6-phosphate was detected
Baker yeast UGPase
  substrate recognition in formation of UDP glucosamine: recognized glucosamine-1-P as a substrate
UGPase
  activity in using substrate to form UDP glucosamine: also found in maize endosperm protein extract
PGM from rabbit muscle
  conversion of substrate by rabbit muscle PGM (glucosamine-1-phosphate to glucosamine-6-phosphate or reverse): about 60%
Bovine liver UGPase
  substrate recognition in formation of UDP glucosamine: recognized glucosamine-1-P as a substrate

## N[C@H]1C(O)O[C@H](COP(=O)(O)O)[C@@H](O)[C@@H]1O (stereo partly drawn) [glucosamine-6-phosphate]
PGM from rabbit muscle
  conversion of substrate by rabbit muscle PGM (glucosamine-1-phosphate to glucosamine-6-phosphate or reverse): about 70%

## O=P(O)(O)O[C@H]1O[C@H](CO)[C@@H](O)[C@H](O)[C@H]1O [glucose-1-phosphate]
Phosphoglucomutase (PGM)
  use of substrate by PGM in maize endosperm extract (result in words): near complete conversion
PGM from rabbit muscle; positive control, formation of glucose-6-phosphate
  use of substrate by rabbit muscle PGM (result in words): nearly depleted
